Measurements published in ChEMBL document CHEMBL3991601, “The target landscape of clinical kinase drugs” (Science, 2017).
Activity calls are given as the source filed them. For most assays here, no stated cut-off is given here; in the data, actives have a measured Kd and inactives only a lower limit.

Legend:
[1] = biological target: T1, Serine/threonine-protein kinase 3 (Homo sapiens, UniProt Q13188)
T1 sequence (Q13188 whole entry): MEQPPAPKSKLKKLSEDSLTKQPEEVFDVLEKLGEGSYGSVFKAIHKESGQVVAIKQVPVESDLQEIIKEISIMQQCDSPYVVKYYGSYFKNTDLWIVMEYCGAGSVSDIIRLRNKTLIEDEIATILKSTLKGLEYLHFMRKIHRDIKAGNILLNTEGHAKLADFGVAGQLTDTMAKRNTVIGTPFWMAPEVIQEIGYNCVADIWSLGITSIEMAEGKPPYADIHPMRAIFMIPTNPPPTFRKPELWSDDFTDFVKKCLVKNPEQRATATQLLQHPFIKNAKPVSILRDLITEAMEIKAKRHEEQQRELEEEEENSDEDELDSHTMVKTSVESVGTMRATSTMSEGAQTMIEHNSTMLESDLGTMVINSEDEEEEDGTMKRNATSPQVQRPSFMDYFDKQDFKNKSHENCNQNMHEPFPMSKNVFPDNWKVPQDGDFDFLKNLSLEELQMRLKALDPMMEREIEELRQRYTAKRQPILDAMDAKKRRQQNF

[2] = biological target: T2, Serine/threonine-protein kinase Nek1 (Homo sapiens, UniProt Q96PY6)
T2 sequence (Q96PY6 whole entry): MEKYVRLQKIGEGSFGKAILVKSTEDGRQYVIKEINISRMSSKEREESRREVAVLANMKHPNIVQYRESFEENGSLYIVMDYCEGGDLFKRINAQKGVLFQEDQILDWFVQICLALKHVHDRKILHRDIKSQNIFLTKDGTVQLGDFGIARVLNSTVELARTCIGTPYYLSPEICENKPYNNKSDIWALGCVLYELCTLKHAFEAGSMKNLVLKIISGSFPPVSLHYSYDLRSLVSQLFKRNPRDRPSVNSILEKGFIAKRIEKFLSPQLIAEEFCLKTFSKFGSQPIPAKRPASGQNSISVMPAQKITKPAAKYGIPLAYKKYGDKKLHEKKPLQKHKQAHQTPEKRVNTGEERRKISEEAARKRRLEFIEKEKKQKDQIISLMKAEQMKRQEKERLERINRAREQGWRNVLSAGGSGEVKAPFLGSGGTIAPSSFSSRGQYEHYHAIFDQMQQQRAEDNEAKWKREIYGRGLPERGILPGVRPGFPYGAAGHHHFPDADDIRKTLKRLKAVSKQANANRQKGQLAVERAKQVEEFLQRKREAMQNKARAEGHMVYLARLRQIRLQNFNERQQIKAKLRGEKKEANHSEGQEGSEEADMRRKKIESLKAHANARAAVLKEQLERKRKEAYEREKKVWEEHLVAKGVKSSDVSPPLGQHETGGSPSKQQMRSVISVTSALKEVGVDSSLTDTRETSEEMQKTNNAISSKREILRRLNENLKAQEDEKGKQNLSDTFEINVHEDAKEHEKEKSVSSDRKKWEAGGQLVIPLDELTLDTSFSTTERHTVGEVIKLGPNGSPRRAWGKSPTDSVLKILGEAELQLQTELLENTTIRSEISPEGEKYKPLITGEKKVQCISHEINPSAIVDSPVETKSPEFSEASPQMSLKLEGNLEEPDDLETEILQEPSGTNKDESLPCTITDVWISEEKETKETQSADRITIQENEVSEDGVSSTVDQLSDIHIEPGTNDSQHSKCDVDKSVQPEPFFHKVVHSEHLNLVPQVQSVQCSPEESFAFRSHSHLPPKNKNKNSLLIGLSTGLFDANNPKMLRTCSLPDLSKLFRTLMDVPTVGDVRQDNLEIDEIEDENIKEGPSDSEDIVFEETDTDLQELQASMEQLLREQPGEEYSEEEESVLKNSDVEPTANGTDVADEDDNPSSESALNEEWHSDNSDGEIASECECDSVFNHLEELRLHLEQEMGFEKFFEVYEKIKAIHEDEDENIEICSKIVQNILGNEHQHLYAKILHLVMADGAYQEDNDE

[3] = biological target: T3, Discoidin domain-containing receptor 2 (Homo sapiens, UniProt Q16832)
T3 sequence (Q16832 whole entry): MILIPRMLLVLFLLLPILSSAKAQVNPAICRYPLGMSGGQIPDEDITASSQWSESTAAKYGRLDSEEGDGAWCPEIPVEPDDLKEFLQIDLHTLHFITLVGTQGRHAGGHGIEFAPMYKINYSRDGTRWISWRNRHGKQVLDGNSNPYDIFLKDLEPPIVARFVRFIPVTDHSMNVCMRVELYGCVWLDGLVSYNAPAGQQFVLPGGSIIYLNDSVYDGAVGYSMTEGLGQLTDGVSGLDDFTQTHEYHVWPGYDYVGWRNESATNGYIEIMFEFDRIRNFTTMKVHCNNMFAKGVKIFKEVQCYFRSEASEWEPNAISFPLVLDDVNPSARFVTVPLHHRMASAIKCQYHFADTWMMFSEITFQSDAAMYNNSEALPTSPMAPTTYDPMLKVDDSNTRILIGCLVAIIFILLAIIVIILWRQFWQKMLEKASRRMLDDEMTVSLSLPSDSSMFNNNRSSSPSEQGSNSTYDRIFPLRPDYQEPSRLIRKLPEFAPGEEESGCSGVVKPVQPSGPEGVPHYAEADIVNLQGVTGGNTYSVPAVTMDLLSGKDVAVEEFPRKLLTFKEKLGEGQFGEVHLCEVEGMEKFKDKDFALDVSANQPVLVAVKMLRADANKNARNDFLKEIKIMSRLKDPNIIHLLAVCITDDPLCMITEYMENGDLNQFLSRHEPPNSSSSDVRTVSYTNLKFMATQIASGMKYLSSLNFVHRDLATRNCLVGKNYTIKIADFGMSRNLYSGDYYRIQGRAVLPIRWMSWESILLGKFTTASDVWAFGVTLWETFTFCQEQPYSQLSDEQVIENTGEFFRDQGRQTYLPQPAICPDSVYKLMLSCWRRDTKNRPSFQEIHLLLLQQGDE

[4] = biological target: Cyclin-dependent kinase 5 (Homo sapiens, UniProt Q00535)
Sequence of Cyclin-dependent kinase 5 (Q00535 whole entry): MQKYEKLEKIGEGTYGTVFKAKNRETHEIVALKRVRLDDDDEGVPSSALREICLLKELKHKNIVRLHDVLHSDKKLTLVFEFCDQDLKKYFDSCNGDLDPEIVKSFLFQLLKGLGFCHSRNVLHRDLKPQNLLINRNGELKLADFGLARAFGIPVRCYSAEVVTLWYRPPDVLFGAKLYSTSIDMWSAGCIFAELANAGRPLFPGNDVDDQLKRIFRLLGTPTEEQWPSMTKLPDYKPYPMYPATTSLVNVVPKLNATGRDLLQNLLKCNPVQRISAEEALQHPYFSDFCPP

SMILES	Kd [1]	Kd [2]	Kd [3]	Kd [4]
O=S(=O)(c1cccc2c(O)nccc12)N1CCCNCC1 [HYDROXYFASUDIL]	> 30 µM (inactive)	> 30 µM (inactive)	> 30 µM (inactive)	> 30 µM (inactive)
COCCN1CCN(Cc2ccc(-c3n[nH]c4c3C(=O)c3c(NC(=O)NN5CCOCC5)cccc3-4)cc2)CC1 [RGB-286638]	> 30 µM (inactive)	> 30 µM (inactive)	> 30 µM (inactive)	0.318 µM (active)
CC[C@@](C)(Nc1ccnc(-c2c[nH]c3ncccc23)n1)C(=O)NCC(F)(F)F [DECERNOTINIB]	> 30 µM (inactive)	> 30 µM (inactive)	> 30 µM (inactive)	> 30 µM (inactive)
CCc1cc2c(cc1N1CCC(N3CCOCC3)CC1)C(C)(C)c1[nH]c3cc(C#N)ccc3c1C2=O [ALECTINIB]	> 30 µM (inactive)	> 30 µM (inactive)	> 30 µM (inactive)	> 30 µM (inactive)
COc1cc(Nc2ncc(F)c(Nc3ccc4c(n3)N(COP(=O)(O)O)C(=O)C(C)(C)O4)n2)cc(OC)c1OC [FOSTAMATINIB]	> 30 µM (inactive)	> 30 µM (inactive)	> 30 µM (inactive)	> 30 µM (inactive)
Cc1ccc(C(=O)Nc2ccc(Oc3cc4cnn(C)c4cc3-c3cn[nH]c3)c(F)c2)c(=O)n1-c1ccc(F)cc1 [MERESTINIB]	> 30 µM (inactive)	> 30 µM (inactive)	0.908 µM (active)	> 30 µM (inactive)
c1cc(OCCN2CCCCC2)cc(-c2n[nH]c3ccc(-c4nc[nH]n4)cc23)c1 [CC-401]	> 30 µM (inactive)	> 30 µM (inactive)	> 30 µM (inactive)	> 30 µM (inactive)
O=C(NOC[C@H](O)CO)c1ccc(F)c(F)c1Nc1ccc(I)cc1F [MIRDAMETINIB]	> 30 µM (inactive)	> 30 µM (inactive)	> 30 µM (inactive)	> 30 µM (inactive)
C[C@@H]1COC(Nc2ccc3ncnc(Nc4ccc(OCc5nccs5)c(Cl)c4)c3c2)=N1 [VARLITINIB]	> 30 µM (inactive)	> 30 µM (inactive)	> 30 µM (inactive)	> 30 µM (inactive)
COc1cc2nccc(Oc3ccc(NC(=O)C4(C(=O)Nc5ccc(F)cc5)CC4)cc3)c2cc1OC [CABOZANTINIB]	> 30 µM (inactive)	> 30 µM (inactive)	0.501 µM (active)	> 30 µM (inactive)
CNC(=O)c1cccc(-c2ccc3c(N4CCOC[C@@H]4C)nc(N4CCOC[C@@H]4C)nc3n2)c1 [VISTUSERTIB]	> 30 µM (inactive)	> 30 µM (inactive)	> 30 µM (inactive)	> 30 µM (inactive)
S=C(NCc1ccc2c(c1)OCO2)N1CCN(c2ncnc3c2oc2ccccc23)CC1 [AMUVATINIB]	> 30 µM (inactive)	> 30 µM (inactive)	> 30 µM (inactive)	> 30 µM (inactive)
COc1ccc(-c2ccc3ncc4c(c3c2)n(-c2ccc(N3CCNCC3)c(C(F)(F)F)c2)c(=O)n4C)cn1 [BGT-226 FREE BASE]	> 30 µM (inactive)	> 30 µM (inactive)	> 30 µM (inactive)	> 30 µM (inactive)
C=CCN(/C=C1/C(=O)O[C@H](COC)[C@@]2(C)C1=C(O)C(=O)C1=C2[C@H](OC(C)=O)C[C@]2(C)C(=O)CC[C@@H]12)CC=C [SONOLISIB]	> 30 µM (inactive)	> 30 µM (inactive)	> 30 µM (inactive)	> 30 µM (inactive)
C=CC(=O)Nc1cc(Nc2nccc(-c3cn(C)c4ccccc34)n2)c(OC)cc1N(C)CCN(C)C [OSIMERTINIB]	> 30 µM (inactive)	> 30 µM (inactive)	> 30 µM (inactive)	> 30 µM (inactive)
Cc1c(Cn2c(C)nc3c(C(=O)O)cc(N4CCOCC4)cc32)cccc1C(F)(F)F [GSK-2636771]	> 30 µM (inactive)	> 30 µM (inactive)	> 30 µM (inactive)	> 30 µM (inactive)
O=C(O)c1ccc2c(c1)nc(Nc1cccc(Cl)c1)c1ccncc12 [SILMITASERTIB]	> 30 µM (inactive)	> 30 µM (inactive)	> 30 µM (inactive)	0.514 µM (active)
COc1cc2ncnc(Nc3ccc(F)c(Cl)c3)c2cc1NC(=O)/C=C/CN1CCCCC1 [DACOMITINIB ANHYDROUS]	> 30 µM (inactive)	> 30 µM (inactive)	> 30 µM (inactive)	> 30 µM (inactive)
COc1ccc2c(OCc3nnc4ccc(-c5ccccc5)nn34)ccnc2c1 [AMG-208]	> 30 µM (inactive)	> 30 µM (inactive)	> 30 µM (inactive)	> 30 µM (inactive)
O=C(NC[C@H](O)CO)c1ccncc1Nc1ccc(I)cc1F [PIMASERTIB]	> 30 µM (inactive)	> 30 µM (inactive)	> 30 µM (inactive)	> 30 µM (inactive)
C#Cc1cccc(Nc2ncnc3cc4c(cc23)OCCOCCOCCO4)c1 [ICOTINIB]	> 30 µM (inactive)	> 30 µM (inactive)	> 30 µM (inactive)	> 30 µM (inactive)

Further lines, results first:

Kd [1]	Kd [2]	Kd [3]	Kd [4]	SMILES
> 30 µM (inactive)	> 30 µM (inactive)	> 30 µM (inactive)	> 30 µM (inactive)	COc1cccc2cc(-c3nc([C@H]4CC[C@H](C(=O)O)CC4)n4ncnc(N)c34)[nH]c12 [OSI-027]
> 30 µM (inactive)	> 30 µM (inactive)	0.065 µM (active)	> 30 µM (inactive)	CCOc1ccn(-c2ccc(F)cc2)c(=O)c1C(=O)Nc1ccc(Oc2ccnc(N)c2Cl)c(F)c1 [BMS-777607]
> 30 µM (inactive)	> 30 µM (inactive)	> 30 µM (inactive)	> 30 µM (inactive)	CC(C)(O)CC(=O)NCCn1ccc2ncnc(Nc3ccc(Oc4cccc(C(F)(F)F)c4)c(Cl)c3)c21 [TAK-285]
> 30 µM (inactive)	> 30 µM (inactive)	> 30 µM (inactive)	> 30 µM (inactive)	COc1cc2ncnc3c2cc1OCCCCCN(C)Cc1ccc(Br)cc1N3 [JNJ-26483327]
> 30 µM (inactive)	> 30 µM (inactive)	> 30 µM (inactive)	> 30 µM (inactive)	O=C(Nc1ccc(OC(F)(F)F)cc1)c1sccc1NCc1ccnc2ccccc12 [OSI-930]
